Measurements published in patent publication US20070189997A1, “Skin-whitening agent containing polyphenol compound” (Nichirei Foods Inc., priority 2004, published 2007).
Values joined by “and” are separate entries in the source; they are usually repeats but may differ in a detail not shown here. Identical values can stand only once.

Experiments:
mushroom tyrosinase [1] = assay: Inhibition of tyrosinase activity (L-Dopa, absorbance at 475 nm), procedure of Example 3; assay type: biochemical; details: for effects of inhibiting tyrosinase activity (FIG. 1, 3, 4): 25° C., various concentrations in DMSO; for effects for inhibiting tyrosinase activity relative to kojic acid: compared with kojic acid, Table 2; for IC50: procedure of Example 3, read-out: Concentration at which 50% of tyrosinase activity is inhibited
Procedure: 1/15M phosphate buffer (70 μl, pH 6.8), 2 μl each of sample solutions of the C18-adsorbed fraction obtained in Example 1 dissolved in dimethyl sulfoxide (DMSO) at various concentrations, and 70 μl (10 U) of mushroom tyrosinase (Calzyme Laboratories) dissolved in the buffer were mixed, and the mixture was incubated at 25° C. for 10 minutes. Thereafter, 70 μl of 10 mM L-Dopa was added to initiate the reaction, the absorbance at 475 nm was assayed every 20 seconds for 2 minutes, and the inhibition (%) of tyrosinase activity was calculated using the following equation. […] Further, PVPP resin was added to the supernatant to a concentration of 1%, and the resultant was also agitated for 1.5 hours, followed by centrifugation to obtain a supernatant. […] The sample was dissolved in 1/15M phosphate buffer (pH 6.8) instead of DMSO. The polyphenol content was assayed in the same manner as in Example 1.

tyrosinase [2] = assay: Tyrosinase activity inhibition, C18-adsorbed fraction and ascorbic acid alone and combined (Example 12, absorbance at 450 nm); assay type: biochemical, mushroom
Procedure: A sample (or a combination of two types of samples) was dissolved in DMSO and diluted with DMSO at adequate concentrations.
A tyrosinase solution (70 μl, 10 U/70 μl, Calzyme Laboratories, Inc.), 70 μl of 1/15M phosphate buffer (Wako Pure Chemical Industries, Ltd.), and 4 μl each of the samples dissolved in DMSO at various concentrations were introduced into separate wells of a 96-well plate. DMSO was added to a control sample instead of a sample solution.
After the pre-incubation was carried out at 25° C. for 10 minutes, 70 μl of 10 mM L-DOPA (Wako Pure Chemical Industries, Ltd.) was added, the mixture was mixed immediately thereafter, and the absorbance at 450 nm was assayed every 20 seconds for 2 minutes. Change (slope) in the absorbance per unit time thus assayed was designated as the initial rate, and the inhibition (%) was determined by the following equation. Inhibition (%)={1−(initial ratesample/initial ratecontrol)}×100
The terms “additive effect” and “synergistic effect” are described. When tyrosinase activity inhibition (%) by the C18-adsorbed fraction alone at a concentration of A μg/ml is X (%) and tyrosinase activity inhibition (%) by ascorbic acid alone at a concentration of B μg/ml is Y (%), the case where the value Z for the tyrosinase activity inhibition (%) assayed upon the reaction of the C18-adsorbed fraction at a concentration of A μg/ml with ascorbic acid at a concentration of B μg/ml is equal to the sum of X+Y is evaluated as “C18-adsorbed fraction additively reacts with ascorbic acid.” The case where the value Z is greater than the sum of X+Y is evaluated as “C18-adsorbed fraction synergistically reacts with ascorbic acid.” When the value Z is smaller than the sum of X+Y, the C18-adsorbed fraction and ascorbic acid attenuate their effects each other.

mushroom tyrosinase [3] = assay: Test of anthocyanidin compounds for inhibiting tyrosinase activity (Example 11, IC50); assay type: biochemical; details: for IC50: 25° C., L-Dopa, 475 nm
Procedure: The sample compounds were dissolved in DMSO and diluted with DMSO at adequate concentrations.
1/15M phosphate buffer (70 μl), 70 μl of a solution containing mushroom tyrosinase adjusted at 1 U/μl with a buffer, and 2 μl each of sample solutions dissolved in DMSO at various concentrations were introduced into separate wells of a 96-well plate, and these substances were thoroughly mixed, followed by incubation at 25° C. for 10 minutes.
A solution of 10 mM L-Dopa (70 μl) was added and mixed in immediately thereafter. […] The reaction was carried out at 25° C.
Change (slope) in the absorbance per unit time was designated as the initial rate, and the inhibition of tyrosinase activity (%) was determined by the following equation. Inhibition (%)={1−(initial ratesample/initial ratecontrol)}×100

tyrosinase [4] = details: cited from earlier work
[5] = in vivo; cited from earlier work

SMILES | IC50 (mushroom tyrosinase [3]) [µM] | effects of inhibiting tyrosinase activity (Non-Patent Document 1) (tyrosinase [4]) | effects of inhibiting tyrosinase activity (mushroom tyrosinase [3]) | other results
O=C1O[C@H]([C@@H](O)CO)C(O)=C1O [Ascorbic acid, ascorbic acid] | – | – | – | Inhibition of tyrosinase activity (%) (mushroom tyrosinase [1]; Ascorbic acid 33.3 μM): 5.49%; Mean of tyrosinase activity inhibition (n = 3) (tyrosinase [2]; ascorbic acid alone 2.4 μg/ml): −1.3%; Mean of tyrosinase activity inhibition (n = 3) (tyrosinase [2]; ascorbic acid alone 4.7 μg/ml): 1.0% and 1.0 ± 3.4%; Mean of tyrosinase activity inhibition (n = 3) (tyrosinase [2]; ascorbic acid alone 9.4 μg/ml): 9.0% and 9.0 ± 2.9%; Mean of tyrosinase activity inhibition (n = 3) (tyrosinase [2]; ascorbic acid alone 47.2 μg/ml): 95.0%; tyrosinase inhibitory activity (tyrosinase [2]; ascorbic acid at a concentration up to 9.4 μg/ml): inhibitory activity was not observed very much; tyrosinase inhibitory activity (tyrosinase [2]; ascorbic acid at a final concentration of 47.2 μg/ml): almost completely inhibited
C[C@@H]1O[C@@H](O[C@H]2C(=O)c3c(O)cc(O)cc3O[C@@H]2c2ccc(O)c(O)c2)[C@H](O)[C@H](O)[C@H]1O [Astilbin, dehydroquercitrin] | > 2000 | – | – | –
C[C@@H]1O[C@@H](Oc2cc3c(O)cc(O)cc3[o+]c2-c2ccc(O)c(O)c2)[C@H](O)[C@H](O)[C@H]1O.[Cl-] [C3R, cyanidin-3-rhamnoside] | 33 | – | – | effects of inhibiting tyrosinase activity (FIG. 1, 3, 4) (mushroom tyrosinase [1]): found to have effects of inhibiting tyrosinase activity; effects for inhibiting tyrosinase activity relative to kojic acid (mushroom tyrosinase [1]): equivalent to those of kojic acid; IC50 (mushroom tyrosinase [1]): 33 µM
Oc1cc(O)c2cc(O)c(-c3ccc(O)c(O)c3)[o+]c2c1.[Cl-] [Cyanidin chloride] | 11 | neither delphinidin, cyanidin, and malvidin have effects of inhibiting tyrosinase activity | found to have effects of inhibiting tyrosinase activity | –
OC[C@H]1O[C@@H](Oc2cc3c(O)cc(O)cc3[o+]c2-c2ccc(O)c(O)c2)[C@H](O)[C@@H](O)[C@@H]1O [Cyanidin-3-glucoside, reference compound] | 84 | – | – | –
Oc1cc(O)c2cc(O)c(-c3cc(O)c(O)c(O)c3)[o+]c2c1 [Delphinidin chloride] | 16.4 | neither delphinidin, cyanidin, and malvidin have effects of inhibiting tyrosinase activity | found to have effects of inhibiting tyrosinase activity | –
O=c1cc(CO)occ1O [Kojic acid] | – | – | – | potential cause of liver cancer in animal tests [5]: found to be a potential cause of liver cancer
COc1cc(-c2[o+]c3cc(O)cc(O)c3cc2O)cc(OC)c1O [Malvidin chloride] | 0.4 | neither delphinidin, cyanidin, and malvidin have effects of inhibiting tyrosinase activity | particularly potent | –
CC1O[C@@H](Oc2cc3c(O)cc(O)cc3[o+]c2-c2ccc(O)cc2)[C@@H](O)C(O)[C@H]1O (some centres unmarked) [P3R, pelargonidin-3-rhamnoside] | 5.7 | – | – | effects of inhibiting tyrosinase activity (FIG. 1, 3, 4) (mushroom tyrosinase [1]): found to have effects of inhibiting tyrosinase activity; effects for inhibiting tyrosinase activity relative to kojic acid (mushroom tyrosinase [1]): about 6 times; IC50 (mushroom tyrosinase [1]): 5.7 µM
Oc1ccc(-c2[o+]c3cc(O)cc(O)c3cc2O)cc1 [Pelargonidin chloride] | 20 | – | found to have effects of inhibiting tyrosinase activity | –
